Entries after “also recorded” stand apart in the source; their conditions may differ. Like-named read-outs stand apart in the source and are kept apart here.
Molecular target: T1, GLP-2R (Rattus norvegicus, UniProt Q9Z0W0)
T1 construct: the described assay enables native GLP-2R characterization by the direct application of GLP-2 to intestinal tissue segments ex vivo; from tissue; host or cells: colon segments of male Sprague-Dawley rats
T1 sequence (Q9Z0W0 1-550): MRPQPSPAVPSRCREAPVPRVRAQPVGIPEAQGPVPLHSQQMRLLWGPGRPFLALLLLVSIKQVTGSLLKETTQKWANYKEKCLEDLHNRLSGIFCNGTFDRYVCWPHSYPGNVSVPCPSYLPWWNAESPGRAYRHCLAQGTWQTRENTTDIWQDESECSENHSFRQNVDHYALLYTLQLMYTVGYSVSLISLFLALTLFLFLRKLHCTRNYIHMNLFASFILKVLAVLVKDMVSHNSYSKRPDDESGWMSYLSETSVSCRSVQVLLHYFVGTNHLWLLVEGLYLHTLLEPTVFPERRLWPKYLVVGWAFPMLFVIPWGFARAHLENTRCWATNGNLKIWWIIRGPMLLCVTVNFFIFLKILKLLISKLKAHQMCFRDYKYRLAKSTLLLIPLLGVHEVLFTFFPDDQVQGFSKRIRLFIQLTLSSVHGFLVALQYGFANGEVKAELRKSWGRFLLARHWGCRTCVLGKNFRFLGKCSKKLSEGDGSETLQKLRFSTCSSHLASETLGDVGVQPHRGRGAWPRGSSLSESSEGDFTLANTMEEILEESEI
Assay: Ex vivo organ bath assay of spontaneous contractility of rat colon segments
Details: for IC50: rat colon segments; for effect on spontaneous colon contractility: substance alone
Description: Segments of colon from male Sprague Dawley rats were suspended in organ bath chambers containing Krebs' solution and maintained at 37° C. with 95% O2 and 5% CO2. Basal tone, contractility rate and peak height were used to measure the properties of spontaneous and ligand-mediated colonic contractions. Segments were initially loaded to a tension of 2 g and allowed to equilibrate for 60 minutes. During this period, segments were repeatedly washed every 10 minutes. [gly2]GLP-2 (“Teduglutide”, a GLP-2 agonist) and GLP-2 analogues were subsequently incubated with each tissue segment for 5 to 10 minutes. The tissues were allowed to re-equilibrate with repeated washes following each experiment.
Male Sprague-Dawley (SD) rats (Charles River Canada, Quebec), weighing 200-250 g, were used for these studies. The animals were housed on contact bedding and kept with free access to food (Purina Rodent Diet) and water in a facility with regulated temperature and humidity, under an alternate 12-hour light/dark cycle. Animals were acclimatized for 3˜5 days prior to harvesting of tissues.
Rats were euthanized by decapitation. The entire intestine was quickly removed and placed in a Petri dish containing a Sylgard layer and 37° C. Krebs' solution bubbled with 95% O2 and 5% CO2. The Krebs' solution (pH 7.4) contained 118.1 mM NaCl, 25 mM NaHCO3, 4.7 mM KCl, 1.2 mM KH2PO4, 1.2 mM MgSO4.7H2O, 2.5 mM CaCl2.2H2O and 11 mM glucose. The colon was isolated, cleaned of superficial fat and mesentery and sectioned into eight 1-cm long segments. The lumen was cleaned by carefully flushing each segment with Krebs' solution using plastic transfer pipets. Segments were transferred to a separate Petri dish containing fresh Krebs' solution and suture threads were tied to both ends of each segment. Tissues were suspended longitudinally using surgical suture, one end attached to the transducer on the top and the other to the tissue holder at the bottom of 20 ml organ bath chambers containing Krebs' solution, maintained at 37° C. with 95% O2 and 5% CO2. Isometric tensions were continuously measured using calibrated force displacement transducers and data was collected and processed by the MP100WSW system with AcqKnowledge software
Segments of colon were initially loaded to a tension of 2 g and allowed to equilibrate for a 60 min period. During this period, segments were washed with Krebs' solution at 10 minutes intervals. When the tissues obtained regular and stable contraction patterns, GLP-2 agonist response experiments were conducted by the addition of eight concentrations of compound into eight separate organ baths for 5-10 minutes. Routinely, one-hour washes were interspersed between repeat applications of compounds to allow for recovery. The effect of GLP-2(3-33) on GLP-2 agonist analogues were conducted by pre-incubating colon segments with 1 or 10 uM GLP-2(3-33) for 5-10 minutes. Then agonist responses were measured at various concentrations as described above.
Tension was measured by changes in peak height. Data were calculated and expressed as percentage response relative to the basal level (prior to the experiment). Graphs and IC50 determinations were plotted by the percentage response in GraphPad Prism (v 3.02). In order to assess the significance of the effect of GLP-2 and Teduglutide paired t-tests were conducted on the Log [IC50] values.

Compound	IC50 (agonist alone, read-out: estimated IC50, inhibition of colon contractility) [nM]	IC50 (pre-incubated with 1 μM GLP-2(3-33), read-out: estimated IC50, inhibition of colon contractility in the presence of GLP-2(3-33)) [nM]	IC50 (pre-incubated with 10 μM GLP-2(3-33), read-out: estimated IC50, inhibition of colon contractility in the presence of GLP-2(3-33)) [nM]	effect on spontaneous colon contractility (rat colon)	effect on GLP-2(1-33)-induced inhibition of colon contractility (rat colon, 1 μM and 10 μM test substance, agonist GLP-2(1-33))	effect on teduglutide-induced inhibition of rat colon contractility (rat colon, 1 μM and 10 μM test substance, agonist teduglutide)
CC[C@H](C)[C@H](NC(=O)[C@H](Cc1ccccc1)NC(=O)[C@H](CC(=O)O)NC(=O)[C@H](CCCNC(=N)N)NC(=O)[C@H](C)NC(=O)[C@H](C)NC(=O)[C@H](CC(C)C)NC(=O)[C@H](CC(N)=O)NC(=O)[C@H](CC(=O)O)NC(=O)[C@H](CC(C)C)NC(=O)[C@@H](NC(=O)[C@@H](NC(=O)[C@H](CC(N)=O)NC(=O)[C@H](CCSC)NC(=O)[C@H](CCC(=O)O)NC(=O)[C@H](CC(=O)O)NC(=O)[C@H](CO)NC(=O)[C@H](Cc1ccccc1)NC(=O)[C@H](CO)NC(=O)CNC(=O)[C@H](CC(=O)O)NC(=O)CNC(=O)[C@@H](N)Cc1c[nH]cn1)[C@@H](C)O)[C@@H](C)CC)C(=O)N[C@@H](CC(N)=O)C(=O)N[C@@H](Cc1c[nH]c2ccccc12)C(=O)N[C@@H](CC(C)C)C(=O)N[C@H](C(=O)N[C@@H](CCC(N)=O)C(=O)N[C@H](C(=O)N[C@@H](CCCCN)C(=O)N[C@H](C(=O)N[C@H](C(=O)N[C@@H](CC(=O)O)C(=O)O)[C@@H](C)O)[C@@H](C)CC)[C@@H](C)O)[C@@H](C)CC [Teduglutide, [gly2]GLP-2]	4.9 ± 1.9	34.7 ± 15.1	59.9 ± 11.9	inhibited spontaneous colon contractility in a concentration-dependent manner	–	–
CC[C@H](C)[C@H](NC(=O)[C@H](Cc1ccccc1)NC(=O)[C@H](CC(=O)O)NC(=O)[C@H](CCCNC(=N)N)NC(=O)[C@H](C)NC(=O)[C@H](C)NC(=O)[C@H](CC(C)C)NC(=O)[C@H](CC(N)=O)NC(=O)[C@H](CC(=O)O)NC(=O)[C@H](CC(C)C)NC(=O)[C@@H](NC(=O)[C@@H](NC(=O)[C@H](CC(N)=O)NC(=O)[C@H](CCSC)NC(=O)[C@H](CCC(=O)O)NC(=O)[C@H](CC(=O)O)NC(=O)[C@H](CO)NC(=O)[C@H](Cc1ccccc1)NC(=O)[C@H](CO)NC(=O)CNC(=O)[C@H](CC(=O)O)NC(=O)[C@H](C)NC(=O)[C@@H](N)Cc1c[nH]cn1)[C@@H](C)O)[C@@H](C)CC)C(=O)N[C@@H](CC(N)=O)C(=O)N[C@@H](Cc1c[nH]c2ccccc12)C(=O)N[C@@H](CC(C)C)C(=O)N[C@H](C(=O)N[C@@H](CCC(N)=O)C(=O)N[C@H](C(=O)N[C@@H](CCCCN)C(=O)N[C@H](C(=O)N[C@H](C(=O)N[C@@H](CC(=O)O)C(=O)O)[C@@H](C)O)[C@@H](C)CC)[C@@H](C)O)[C@@H](C)CC [GLP-2(1-33)]	–	–	–	inhibits spontaneous colon contractility in a concentration-dependent manner	–	–
GLP-2(3-33) (DGSFSDEMNTILDNLAARDFINWLIQTKITD; Glucagon-like peptide 2; UniProt P01275 148-178, looked up, fragment) [a GLP-2 antagonist/partial agonist]	–	–	–	no effect alone	blocked GLP-2(1-33)-induced inhibition of colon contractility; also recorded: blocked the inhibitory effects; also recorded: blocks the effect of GLP-2(1-33) in a concentration-dependent manner	blocked teduglutide-induced inhibition of colon contractility; also recorded: blocked the inhibitory effects
